Among the test systems are A498; COLO 205; DU-145; HCC 2998; HOP-62; HOP-92; HT-29; K562; LOX IMVI; M14; MDA-MB-231; NCI-H226; NCI-H522; NCI/ADR-RES; OVCAR-3; OVCAR-4; SF-295; SK-MEL-28; SNB-75; SR.
What all share (assay): NCI anticancer screen, dose series, 48 h

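Step 1: Grow cells in 96-well plates. Step 2: Expose to compound for 48 hours at 5 concentrations. Step 3: Interpolate endpoints linearly; if unreached, use highest concentration. At the GI50, growth is halved.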 Calls of active or inactive are those of the source. Rule as the data show it: active = GI50 up to about 1.1 µM and inactive = higher. A value given as a limit tells only on which side of the number the result lay.

Regarding `Brc1ccc(/C(N=N/C(=N\Sc2ccccc2)c2ccc(Br)cc2)=N/Sc2ccccc2)cc1`, the GI50 with A498, with COLO 205, with DU-145, with HCC 2998, with HOP-62 and in the test on HOP-92 was > 100 µM (inactive) throughout. Further, the GI50 in the test with HT-29, in the test on K562, in the test with LOX IMVI, with M14, with MDA-MB-231 and in the test with NCI-H226 was > 100 µM (inactive) throughout. The GI50 in the test with NCI-H522, in the test with NCI/ADR-RES, in the test on OVCAR-3, in the test on OVCAR-4, in the test on SF-295 and in the test on SK-MEL-28 was > 100 µM (inactive) each time. The GI50 with SNB-75 was > 71.8 µM (inactive); with SR it was > 86.9 µM (inactive).
Turning to `Oc1ccc(Cn2c(-c3ccc(O)c(O)c3)nc3ccccc32)cc1O`, the GI50 in the test with A498 is 90.2 µM (inactive); with COLO 205 it was 17.4 µM (inactive); in the test on DU-145 it was 24.5 µM (inactive); with HCC 2998, 13.9 µM (inactive); with HOP-62, 14 µM (inactive); with HOP-92 it was 6.59 µM (inactive). For the same compound, the GI50 in the test on HT-29 was 30.3 µM (inactive); with K562 it was 10.8 µM (inactive); in the test with LOX IMVI, 11.8 µM (inactive); in the test with M14, 13.9 µM (inactive); in the test on MDA-MB-231, 12.3 µM (inactive); with NCI-H226, 7.43 µM (inactive). The GI50 was 4.67 µM (inactive) with NCI-H522; 32.9 µM (inactive) with NCI/ADR-RES; 14.4 µM (inactive) in the test on OVCAR-3; 4.9 µM (inactive) in the test on OVCAR-4; 23.6 µM (inactive) in the test on SF-295; 22.1 µM (inactive) with SK-MEL-28. Further, the GI50 with SNB-75 is 12.1 µM (inactive); in the test on SR, 3.72 µM (inactive).
`COc1cccc2c1C(=O)c1c(O)c3c(c(O)c1C2=O)C[C@@](O)(/C(C)=N/NC(=O)c1ccccc1)C[C@@H]3OC1CC(N)C(O)C(C)O1` (stereo not given in full): the GI50 in the test with A498 is 0.51 µM (active); with COLO 205, 0.474 µM (active); in the test with DU-145, 0.135 µM (active); with HCC 2998, 0.481 µM (active); in the test with HOP-62 it was 0.122 µM (active); in the test on HOP-92 it was 0.114 µM (active). The GI50 with HT-29 was 0.589 µM (active); with K562 it was 0.233 µM (active); with LOX IMVI it was 0.0935 µM (active); with M14, 0.203 µM (active); with MDA-MB-231, 0.49 µM (active); in the test on NCI-H226, 0.104 µM (active). Further, the GI50 in the test on NCI-H522 is 0.19 µM (active); with NCI/ADR-RES, 16.3 µM (inactive); in the test with OVCAR-3, 0.624 µM (active); in the test with OVCAR-4 it was 1.17 µM (inactive); in the test on SF-295 it was 0.195 µM (active); in the test on SK-MEL-28 it was 0.973 µM (active). Moreover, the results for the GI50 in the test with SNB-75 and with SR were 0.373 µM (active) and 0.0199 µM (active), respectively.
For the compound `C=C1C(=O)OC2CC(C)C(C(O)CC(C)O)=CCC12` (stereo not given), the GI50 with A498 is 16.9 µM (inactive); in the test on COLO 205 it was 10.5 µM (inactive); with DU-145 it was 14.2 µM (inactive); in the test on HCC 2998 it was 18 µM (inactive); with HOP-62, 26.2 µM (inactive); in the test with HOP-92, 12 µM (inactive). Also, the GI50 with HT-29 was 13.6 µM (inactive); in the test on K562, 14.1 µM (inactive); with LOX IMVI, 10.6 µM (inactive); in the test with M14 it was 15.2 µM (inactive); in the test on MDA-MB-231, 17.8 µM (inactive); in the test with NCI-H226, 26.1 µM (inactive). For the same compound, the GI50 with NCI-H522 was 1.61 µM (inactive); in the test on NCI/ADR-RES it was 17 µM (inactive); with OVCAR-3 it was 9.62 µM (inactive); in the test on OVCAR-4 it was 19.7 µM (inactive); in the test on SF-295 it was 41.2 µM (inactive); in the test on SK-MEL-28, 9.62 µM (inactive). The GI50 in the test on SNB-75 was 18.3 µM (inactive); in the test with SR, 8.13 µM (inactive).
In the case of `Cn1c(=O)c2c(nc3n(Cc4ccccc4)c(=O)c(Br)cn23)n(C)c1=O`, the GI50 with A498 was > 100 µM (inactive); in the test on COLO 205 it was > 100 µM (inactive); with DU-145 it was > 100 µM (inactive); in the test with HCC 2998, > 100 µM (inactive); in the test with HOP-62, 80.5 µM (inactive); in the test on HOP-92 it was > 100 µM (inactive). Moreover, the GI50 in the test with HT-29, in the test on K562, with LOX IMVI, in the test on M14, in the test on MDA-MB-231 and in the test on NCI-H226 was > 100 µM (inactive) each time. Moreover, the GI50 in the test on NCI-H522, in the test with NCI/ADR-RES, with OVCAR-3, with OVCAR-4, in the test on SF-295 and with SK-MEL-28 was > 100 µM (inactive) each time. For the same compound, the GI50 in the test with SNB-75 is > 100 µM (inactive); in the test with SR, 1.71 µM (inactive).
Regarding `CO[C@@H]1[C@@H](OC2OC(C)C(OC3CC(C)(O)C(OC(=O)CC(C)C)C(C)O3)C(N(C)C)C2O)[C@@H](CC=O)C[C@@H](C)C(=O)/C=C/C2O[C@H]2C[C@@H](C)OC(=O)C[C@H]1OC(C)=O` (stereo not given in full), the GI50 was 23 µM (inactive) with A498; 12.9 µM (inactive) with COLO 205; 14.6 µM (inactive) with DU-145; 17.7 µM (inactive) with HCC 2998; 19 µM (inactive) with HOP-62; 4.46 µM (inactive) in the test on HOP-92. Besides, the GI50 with HT-29 was 12.3 µM (inactive); in the test with K562, 12.1 µM (inactive); with LOX IMVI it was 15.8 µM (inactive); in the test with M14, 16.1 µM (inactive); in the test on MDA-MB-231, 24.8 µM (inactive); in the test on NCI-H226, 13 µM (inactive). Besides, the GI50 with NCI-H522 was 16.6 µM (inactive); with NCI/ADR-RES, 31 µM (inactive); with OVCAR-3, 14.3 µM (inactive); in the test on OVCAR-4 it was 15.2 µM (inactive); in the test with SF-295, 24.7 µM (inactive); with SK-MEL-28 it was 18.5 µM (inactive). For the same compound, the GI50 in the test on SNB-75 is 31.6 µM (inactive); in the test with SR, 11.3 µM (inactive).
Regarding `CCOC(=O)C(Cc1cc(OC)c(CC(C(=O)OCC)C(=O)OCC)cc1OC)C(=O)OCC`, the GI50 in the test on A498 is > 100 µM (inactive); in the test on COLO 205, > 100 µM (inactive); in the test with DU-145, > 100 µM (inactive); in the test with HCC 2998, > 100 µM (inactive); in the test on HOP-62, > 59.3 µM (inactive); in the test on HOP-92, 26.9 µM (inactive). The GI50 was > 100 µM (inactive) in the test on HT-29; > 100 µM (inactive) in the test with K562; > 100 µM (inactive) in the test on LOX IMVI; > 100 µM (inactive) with M14; 44.9 µM (inactive) in the test on MDA-MB-231; > 91.4 µM (inactive) in the test on NCI-H226. For the same compound, the GI50 in the test with NCI-H522 is > 100 µM (inactive); with NCI/ADR-RES, > 100 µM (inactive); in the test on OVCAR-3, > 100 µM (inactive); in the test on OVCAR-4 it was > 100 µM (inactive); in the test on SF-295, > 92.7 µM (inactive); in the test with SK-MEL-28 it was > 100 µM (inactive). For the same compound, the GI50 was 28.6 µM (inactive) in the test on SNB-75 and > 100 µM (inactive) in the test with SR.
As to `C=C1C(=O)C23CC1C[C@H](OC(C)=O)[C@H]2C1(C)C(OC(C)=O)C[C@H](O)C(C)(C)[C@H]1C(=O)[C@@H]3OC(C)=O` (stereo not given in full), the GI50 in the test with A498 was 16.2 µM (inactive); with COLO 205, 2.17 µM (inactive); in the test with DU-145, 12.9 µM (inactive); in the test with HCC 2998 it was 19.2 µM (inactive); in the test on HOP-62, 25.2 µM (inactive); in the test on HOP-92, 0.248 µM (active). For the same compound, the GI50 with HT-29 was 4.49 µM (inactive); with K562, 1.95 µM (inactive); in the test on LOX IMVI it was 3.4 µM (inactive); in the test with M14, 2.94 µM (inactive); with MDA-MB-231, 5.7 µM (inactive); in the test on NCI-H226, 23.2 µM (inactive). For the same compound, the GI50 in the test on NCI-H522 was 1.57 µM (inactive); with NCI/ADR-RES, 16.7 µM (inactive); in the test with OVCAR-3 it was 5.71 µM (inactive); with OVCAR-4, 4.09 µM (inactive); in the test on SF-295, 17.9 µM (inactive); in the test on SK-MEL-28, 4.59 µM (inactive). Moreover, the GI50 in the test on SNB-75 is 18.4 µM (inactive); in the test with SR, 2.47 µM (inactive).
With `CC1(C)N=c2c(ncn2N)=C(C(N)=O)N1`, the GI50 in the test on A498 was > 100 µM (inactive); with COLO 205, > 100 µM (inactive); in the test with DU-145 it was > 100 µM (inactive); in the test on HCC 2998 it was > 100 µM (inactive); with HOP-62 it was > 100 µM (inactive); in the test on HOP-92, 22.3 µM (inactive). The GI50 in the test with HT-29, with K562, in the test with LOX IMVI, in the test on M14, in the test with MDA-MB-231 and with NCI-H226 was > 100 µM (inactive) in each case. The GI50 in the test on NCI-H522, with NCI/ADR-RES, with OVCAR-3, in the test on OVCAR-4, with SF-295 and in the test with SK-MEL-28 was > 100 µM (inactive) each time. Further, the GI50 in the test on SNB-75 and with SR was > 100 µM (inactive) in each case.
`Cc1nc(C)c(N2CCN(C#N)CC2)c(O)n1`: the GI50 in the test on A498, in the test with COLO 205, in the test on DU-145, in the test on HCC 2998, with HOP-62 and with HOP-92 was > 100 µM (inactive) in each case. The GI50 in the test on HT-29, in the test with K562, in the test with LOX IMVI, in the test on M14, with MDA-MB-231 and in the test on NCI-H226 was > 100 µM (inactive) throughout. Further, the GI50 in the test on NCI-H522, in the test on NCI/ADR-RES, with OVCAR-3, in the test with OVCAR-4, in the test with SF-295 and with SK-MEL-28 was > 100 µM (inactive) each time. The GI50 with SNB-75 was 0.0442 µM (active); with SR, > 100 µM (inactive).

The record behind these values is ChEMBL document CHEMBL1201862, “PubChem BioAssay data set” (2004).
